Experiments:
Chloroflexus isolate T12 [1] = experiment: Growth on sole energy sources (metabolism experiments); assay type: cell-based, thermophilic Chloroflexi-like bacteria; details: for Growth of T12 on alcohol as sole energy source, FS3V: alcohol 0.05% v/v, aerobic, 60° C.
Experimental: (§1) Mineral salts medium FS3V, FeEDTA, Trace elements solution and AOM1 medium were prepared as for Example 1. Energy sources were added to both media prior to autoclaving (0.5 g/L), except where noted, via syringe filter.
(§2) Unless otherwise stated, the following growth conditions were used for all experiments; Chloroflexus strains were grown aerobically at 60° C. in capped 100 mL serum bottles containing 50 mL of medium and 50 mL air headspace. No CO2 was amended to the headspace. Medium was sterilised via autoclaving (121° C., 20 min). Fifty μL of culture was inoculated into 50 mL of sterile medium. Stock Chloroflexus strains were maintained in liquid culture on mannose and on carboxymethylcellulose (CMC), and on phytagel-based solid medium.
(§3) Growth experiments to determine growth using different energy sources were conducted using the basal media, AOM1 or FS3V. No yeast extract (YE) or vitamins were added as growth supplements to either medium in these series of experiments. […] Both the YE and vitamin mix were also tested as sole energy sources.
(§4) Sole energy sources were added at a concentration of (0.5 g/L). […] Yeast extract (Becton Dickinson, 211929), sodium pyruvate (Sigma, P2256), sodium citrate (Ajax Finechem, A467,) and sodium acetate (Sigma, S2881), were also tested as sole energy sources, along with the alcohols methanol (Merck, 1.06018), ethanol (Merck, 1.00983), 1-propanol (Merck, 1.01024), 2-propanol (Merck, 1.01040), pentanol (Sigma, 138975) and butanol (Sigma, 1.01988). A vitamin mix was tested as a sole energy source. The vitamin mixture contained (in 100 mg): 0.8 mg folic acid; 8 mg vitamin B1; 4 mg vitamin B2; 1 mg niacin; 10 mg niacinamide; 15 mg pantothenate; 15 mg pyridoxine; 5 mg cobalamin; 5 mg biotin; 15 mg choline; 15 mg inositol; 7 mg para-amino benzoic acid and was tested at 10 and 100 mg/L.
(§5) Experiments were inoculated using stock cultures of T81, T12 and T26 grown in a corresponding medium with a corresponding energy source type. For example, inoculum for testing growth on a cellulose-based compound was grown in the corresponding medium with a cellulose-based compound as an energy source. All energy sources were added at a concentration of 0.5 g/L prior to autoclave sterilisation, except for D-N-acetylglucosamine, D-(−)-fructose, sodium acetate, sodium citrate, sodium pyruvate, methanol, ethanol, 1-propanol, 2-propanol, pentanol and butanol which were added via filter sterilisation (0.22 μm pore size membrane syringe filter). Tests were conducted in triplicate with a sterile control.

Chloroflexus isolate T81 [2] = experiment: as above; assay type: cell-based, thermophilic Chloroflexi-like bacteria; details: aerobic, 60° C.; for Growth of T81 on alcohol as sole energy source, FS3V: alcohol 0.05% v/v; for Growth of T81 on sole energy source, FS3V: FS3V medium (pH 4.5), energy source 0.5 g/L
Chloroflexus isolate T26 = experiment: as above; assay type: cell-based, thermophilic Chloroflexi-like bacteria; details: aerobic, 60° C.; for Growth of T26 on sole energy source, AOM1: AOM1 medium (pH 6.5), energy source 0.5 g/L
Experimental: as §1, §2, §3, §4, §5

Chloroflexus isolate T81 [3] = experiment: as above; assay type: cell-based, thermophilic Chloroflexi-like bacteria; details: AOM1 (pH 6.5) and FS3V (pH 4.5)
Experimental: as §1, §2, §3, §4, §5

Strain T81 = experiment: Preference for alcohols over saccharides (fructose with ethanol, HPLC); assay type: cell-based, thermophilic Chloroflexi-like bacteria; details: FS3V, 60° C.
Experimental: Unless otherwise stated, sugars and/or alcohols were measured on a Dionex Ultimate 3000® High Performance Liquid Chromatography (HPLC) unit via refractive index (RI) on a Shodex RI-101 unit (Dionex, Utah, USA). The RI unit was run at 35° C. Samples (10 μL) were injected into a degassed water carrier solution running at 0.6 mL/min. Samples were separated on a Varian PL Hi-Plex H (8 μm, 300×7.7 mm) at 60° C. (Varian, Massachusetts, USA). Chromatographs were interpreted using Chromeleon® software (Dionex, Utah, USA). Strain […] was also tested for it's preference for alcohols over saccharides. […] Strain […] was inoculated and incubated statically at 60° C. One milliliter samples were taken daily and frozen for analysis using HPLC.

[4] = test system: Chloroflexus strains T81, T26 and T12; experiment: Growth on energy sources, statements for all three strains together; assay type: cell-based, thermophilic Chloroflexi-like bacteria
Experimental: Growth experiments to determine growth using different energy sources were conducted using the basal media, AOM1 or FS3V. No yeast extract (YE) or vitamins were added as growth supplements to either medium in these series of experiments. Preliminary experiments have shown that they are not requited. Both the YE and vitamin mix were also tested as sole energy sources. Sole energy sources were added at a concentration of (0.5 g/L). […] A vitamin mix was tested as a sole energy source. The vitamin mixture contained (in 100 mg): 0.8 mg folic acid; 8 mg vitamin B1; 4 mg vitamin B2; 1 mg niacin; 10 mg niacinamide; 15 mg pantothenate; 15 mg pyridoxine; 5 mg cobalamin; 5 mg biotin; 15 mg choline; 15 mg inositol; 7 mg para-amino benzoic acid and was tested at 10 and 100 mg/L. Experiments were inoculated using stock cultures of […], T12 and […] grown in a corresponding medium with a corresponding energy source type. For example, inoculum for testing growth on a cellulose-based compound was grown in the corresponding medium with a cellulose-based compound as an energy source. […] Bacterial growth was determined visually as optical density (OD) measurements are not possible due to growth characteristics of the Chloroflexi isolates. […] Cellulose pulp degradation and sugar generation by Chloroflexus strain […] was assessed. […] Growth on the various pulp tablets was assessed visually.

Chloroflexus isolate T12 [5] = details: FS3V, pH 4.5; ethanol as sole energy source
Experimental: All three Chloroflexus strains were tested for their ability to grow on elevated levels of ethanol. Ethanol at concentrations of 0.1%, 1.0%, 2.0%, 5.0%, 7.5%, and 10.0% (v/v) were asceptically added into FS3V medium following sterilisation as the sole energy source. Strains were then inoculated and incubated statically.

For CCCCCO [1-pentanol], the “Growth of T12 on alcohol as sole energy source, FS3V” value (Chloroflexus isolate T12 [1]) was “exception” and the “Growth of T81 on alcohol as sole energy source, FS3V” value (Chloroflexus isolate T81 [2]) was “exception”.
With O=C[C@@H](O)[C@H](O)[C@H](O)CO [D-(+)-arabinose] the “Growth of T81 on sole energy source, FS3V” value (Chloroflexus isolate T81 [2]) was “grew”.
In the case of OC[C@H]1O[C@@H](O[C@H]2[C@H](O)[C@@H](O)[C@H](O)O[C@@H]2CO)[C@H](O)[C@@H](O)[C@@H]1O [D-(+)-cellobiose], the “Growth of T26 on sole energy source, AOM1” value (shortened to “Growth of T26 … AOM1”) (Chloroflexus isolate T26) is reported as “could grow” and the “Growth of T81 on both media” value (Chloroflexus isolate T81 [3]) is reported as “grew”.
For O=C[C@H](O)[C@@H](O)[C@@H](O)[C@H](O)CO [D-(+)-galactose], the “Growth of T81 on both media” value (Chloroflexus isolate T81 [3]) was “grew”.
OC[C@H]1O[C@H](O[C@H]2[C@H](O)[C@@H](O)[C@H](O)O[C@@H]2CO)[C@H](O)[C@@H](O)[C@@H]1O [D-(+)-maltose] was tested, and the “Growth of T81 on both media” value (Chloroflexus isolate T81 [3]) was “grew”.
O=C[C@@H](O)[C@@H](O)[C@H](O)[C@H](O)CO [D-(+)-mannose] was tested, and the “Growth of Strain T12 in AOM1 medium adjusted to pH 4.5” value (Chloroflexus isolate T12 [1]; AOM1 medium adjusted to pH 4.5) was “able to grow” and the “Growth of T81 on both media” value (Chloroflexus isolate T81 [3]) was “grew”.
In the case of OC[C@H]1O[C@H](O[C@H]2O[C@H](CO)[C@@H](O)[C@H](O)[C@H]2O)[C@H](O)[C@@H](O)[C@@H]1O [D-(+)-trehalose], the “Growth of T81 on both media” value (Chloroflexus isolate T81 [3]) is reported as “grew”.
For O=C[C@H](O)[C@@H](O)[C@H](O)CO [D-(+)-xylose], the “Growth of T81 on both media” value (Chloroflexus isolate T81 [3]) was “grew”.
O=C(CO)[C@@H](O)[C@H](O)[C@H](O)CO [D-(−)-fructose] was tested, and the “Growth of T81 on both media” value (Chloroflexus isolate T81 [3]) was “grew” and the “Consumption by T81 in presence of ethanol and fructose” value (Strain T81; ethanol (0.05% w/v) and fructose (0.05% w/v)) was “consumed fructose in preference to ethanol”.
O=C[C@H](O)[C@H](O)[C@H](O)CO [D-(−)-ribose] was tested, and the “Growth of T81 on sole energy source, FS3V” value (Chloroflexus isolate T81 [2]) was “grew”.
For CC(=O)N[C@H]1C(O)O[C@H](CO)[C@@H](O)[C@@H]1O (stereo partly drawn) [D-N-acetylglucosamine], the “Growth of T26 … AOM1” value (Chloroflexus isolate T26; listed as D-N-actylglucosamine) was “could grow”.
With O=C[C@H](O)[C@@H](O)[C@H](O)[C@H](O)CO [D-glucose] the “Growth of T81 on both media” value (Chloroflexus isolate T81 [3]) was “grew”.
In the case of C[C@@H]1O[C@@H](O)[C@H](O)[C@H](O)[C@H]1O.O [L-rhammnose monohydrate], the “Growth of T26 … AOM1” value (Chloroflexus isolate T26; listed as L-rhamnose monohydrate, monohydrate) is reported as “could grow” and the “Growth of T81 on both media” value (Chloroflexus isolate T81 [3]) is reported as “grew”.
With CCO [ethanol] the “Ethanol concentrations all strains were able to grow on, up to (and including)” value ([4]; FS3V, ethanol as sole energy source) was ≤ 2.0 % (v/v), the “Ethanol concentrations Strain T12 was able to grow on, up to (and including)” value (Chloroflexus isolate T12 [5]) was ≤ 5.0 % (v/v) and the “Effect of ethanol on growth of strain T81” value (Strain T81; 5% (w/v) ethanol and 0.05% (w/v) fructose) was “inhibited the growth”.
O=C[C@H](O)[C@@H](O)[C@@H](O)[C@H](O)C(=O)O [galacturonic acid] was tested, and the “Support of growth / energy for the isolates T81, T26 and T12” value ([4]; sole energy sources, AOM1 or FS3V) was “did not support growth”.
With CCCO [propanol] the “Growth of T26 on alcohol as sole energy source, FS3V” value (Chloroflexus isolate T26; FS3V, alcohol 0.05% v/v) was “best growth” and the “Growth of T81 on alcohol as sole energy source, FS3V” value (Chloroflexus isolate T81 [2]) was “best growth”.
OC[C@H]1O[C@H](OC[C@H]2O[C@H](O[C@]3(CO)O[C@H](CO)[C@@H](O)[C@@H]3O)[C@H](O)[C@@H](O)[C@@H]2O)[C@H](O)[C@@H](O)[C@H]1O [raffinose] was tested, and the “Growth of T81 on both media” value (Chloroflexus isolate T81 [3]) was “grew”.
In the case of OC[C@H]1O[C@@](CO)(O[C@H]2O[C@H](CO)[C@@H](O)[C@H](O)[C@H]2O)[C@@H](O)[C@@H]1O [sucrose], the “Growth of T81 on both media” value (Chloroflexus isolate T81 [3]) is reported as “grew”.
For butanol, the “Growth of T12 on alcohol as sole energy source, FS3V” value (Chloroflexus isolate T12 [1]) was “exception”.

— patent US8597920B2, “Class of Chloroflexi-like thermophilic cellulose degrading bacteria” (priority 2008, dated 2013)
